The results in this text go back to US6733971B2, “Method for identifying an agent that affects a hedgehog signaling pathway” (priority 1998, dated 2004).

Assay [1] relates to Ci. Briefly: Ci induction in cl-8 cells with or without HH-N conditioned medium, Western blot. In kind it is cell-based, Drosophila. On the procedure:
cl-8 cells were cultured as described in Van Leeuwen, F., et al. Nature, 368:342-344, 1994. Culture and transfection of S2 cells were performed as described in Porter, J. A. et al. Cell, 86: 21-34, 1996. The conditioned medium was made by culturing transfected S2 cells in cl-8 medium, and induced by adding CUSO4, to the final concentration of 0.5 Mm overnight. The conditioned medium was harvested the next day, centrifuged to remove S2 cells and the supernatant was used. To make lysate from cl-8 cells, cl-8 cells were washed, harvested in cold phosphate buffered saline (PBS), and then resuspended in NP-40 lysis buffer (150 Mm NaCl, 50 Mm Tris pH8, 1% NP-40, 1 Mm EDTA, 20 μg/ml aprotinin, 20 μg/ml leupeptin, 1 μg/ml pepstatin A, 2.5 μg/ml antipain, 100 μM PMSF, 50 mM NaF, 5 mM Na2P4O7). Cells were lysed at 4° C. for 10 minutes, then centrifuged at 13,000×g for 10 minutes. The supernatant was saved for Western blot analysis.
SDS-PAGE and protein transfer were carried out by standard methods. The primary antibodies used were: rat monoclonal anti-Ci 2Al 1:20 dilution; mouse monoclonal anti-Ptc 1:1000 dilution; mouse monoclonal anti-actin 1:2500. Secondary antibodies were from Jackson Immunologicals. The filters were developed using SuperSignal from Pierce.
Tautomycin (TAU) and okadaic acid (OA) were purchased from Calbiochem and dissolved in dimethyl sulfoxide (DMSO) to different concentrations. The phosphatase inhibitors were mixed with conditioned medium and the concentration of DMSO was adjusted to 0.2% for each sample. cl-8 cells were incubated with conditioned medium and phosphatase inhibitor mixture for 4 hours and lysed for analysis.
(In general: In western blotting, separated proteins are transferred to a membrane and probed.)

Assay [2] concerns Isl1 mRNA. Description: Isl1 mRNA in P19 cells, RT-PCR. As to conditions: 5 nM for 12 hours, 1 nM Shh-N for 24 hours. In kind it is cell-based, mouse. As to the method: Methods described in Example 6 were used in addition to the following protocols. P19 cells were treated with (FIG. 8A, lanes 2 and 4) or without (FIG. 8A, lanes 1 and 3) 1 nM Shh-N for 24 hours and 5 nM OA (FIG. 8A, lanes 3 and 4) for 12 hours and total RNA was obtained. An internal control containing a 763 bp insert into the SphI site of the Islet-1 cDNA was transcribed in vitro to prepare sense-oriented RNA. 1 ng of this RNA along with 100 ng of total RNA from appropriately treated P19 cells was reverse transcribed using Superscript II™ and one-tenth of each reaction was PCR amplified. Specific primers for Islet-1; Forward primer: 5′TCAAAC CTA CTT TGG GGT CTT A 3′SEQ ID NO:5. Reverse primer: 5′ATCGCCGGGGATGAGCTGGCGGCT 3′SEQ ID NO:6, and for COUP-TFII; Forward primer: 5′GATATGGCAATGGTAGTCAGCACGTGG 3′. SEQ ID NO:7, Reverse primer: 5′AGCTTCTCCACTTGCTCTTGG 3′SEQ ID NO:8, were used to PCR amplify (94° C. for 1 minute, 54° C. for 1 minute, and 72° C. for 1 minute. Twenty-two cycles were used for amplifying Islet-1 and the resulting products were separated on a 1% agarose gel in TAE buffer and visualized by ethidium bromide staining. A 1 kb DNA ladder (Stratagene) was used to estimate the size of the products. A 427 bp Isl1 fragment and a 838 bp COUP-TFII fragment was used to estimate changes in mRNA levels.

Assay [3] has as its system SV40 enhancer. Description: Constitutively active SV40 enhancer luciferase reporter (specificity control). In kind it is cell-based. As to conditions: 5 nM (data not shown). Background: Reporter assays use an easily measured gene product as a stand-in for the process of interest.
The subject of assay [4] is ShhRE reporter gene. Briefly: Shh-N mediated induction of ShhRE reporter gene activity. The assay is classed as cell-based, mouse. To be noted: 5 nM (data not shown). On the procedure: Methods described above in Example 6 were used in addition to the following protocols. P19 cells were transfected with a ShhRE-tkLUC reporter plasmid and three copies of a mutant element called mShhRE-tkLUC and treated with or without 1 nM Shh. Cell lysates were obtained after 30 hours and were later assayed for luciferase reporter activity. A graph (FIG. 5B) representing relative luciferase units per twenty μg (RLU/20 μg) was plotted using results obtained from three separate experiments (mean ±sd).

In the case of `C=C1[C@@H](O)[C@@H]2O[C@]3(CC[C@H](/C=C/[C@@H](C)[C@@H]4CC(C)=C[C@@]5(O[C@H](C[C@@](C)(O)C(=O)O)CC[C@H]5O)O4)O3)CC[C@H]2O[C@@H]1[C@@H](O)C[C@H](C)[C@H]1O[C@@]2(CCCCO2)CC[C@H]1C` [OA, okadaic acid], in assay [1] (1 nM, absence of HH signaling), the Ci level result is “significantly reduced” and the “Ci mobility form (phosphorylation)” value is reported as “shifted Ci to the low mobility form”. For the same compound, the Ci detection result in assay [1] (5 to 10 nM) was “completely undetectable”. Further, the “Ci level and mobility” value in assay [1] (presence of HH) is given as “overcame the induction effect of HH”. In addition, in assay [2], the “Shh-N induction of Is11 mRNA” value was “completely blocked”. For the same compound, the “SV40 enhancer driven luciferase reporter gene activity” value in assay [3] is “did not effect”. The “Shh-N mediated induction of ShhRE reporter gene activity” value in assay [4] is listed as “completely blocked”.
